# Source: ChEMBL document CHEMBL6087436, “The novel β-hairpin antimicrobial peptide D-G(RF)3 demonstrates exceptional antibacterial efficacy” (Eur J Med Chem, 2025)
# Test: Acute toxicity in male balb/c mouse assessed as renal necrosis at 81.28 mg/kg, ip by H and E staining based analysis
# Type: organism-based
# Conditions: in vivo
smiles,measurement,value
N=C(N)NCCC[C@H](NC(=O)CNC(=O)[C@H]1CCCN1C(=O)[C@H](CCCNC(=N)N)NC(=O)[C@H](Cc1ccccc1)NC(=O)[C@H](CCCNC(=N)N)NC(=O)[C@H](Cc1ccccc1)NC(=O)[C@H](CCCNC(=N)N)NC(=O)[C@@H](N)Cc1ccccc1)C(=O)N[C@@H](Cc1ccccc1)C(=O)N[C@@H](CCCNC(=N)N)C(=O)N[C@@H](Cc1ccccc1)C(=O)N[C@@H](CCCNC(=N)N)C(=O)N[C@@H](Cc1ccccc1)C(N)=O,Activity,Toxic
